{"source": "patent US20230078702A1", "about": "“USE OF MITOXANTRONE HYDROCHLORIDE LIPOSOME FOR TREATING BREAST CANCER” (CSPC ZHONGQI PHARMACEUTICAL TECHNOLOGY (SHIJIAZHUANG) CO., …, priority 2020, published 2023)", "key": {"[1]": {"test_system": "patients with advanced recurrent or metastatic breast cancer", "details": "human, in vivo", "method": "The study is a randomized, open-labeled, active controlled, single center study to evaluate the safety and efficacy of the mitoxantrone hydrochloride liposome injection in patients with advanced recurrent or metastatic breast cancer.\nInvestigational product: mitoxantrone hydrochloride liposome injection (PLM60 (10 mg/10 mL/vial)) was added to 250 mL of 5% glucose at a dose of 20 mg/m^2 and was administered intravenously over 1 h.\nReference product: mitoxantrone hydrochloride injection (5 mg/5 mL/vial, manufactured by Sichuan Sunnyhope Pharmaceutical, Inc., supplied by CSPC ZHONGQI Pharmaceutical Technology (Shijiazhuang) Co., Ltd., Lot No. 1501201) was added to 100 mL of 5% glucose injection at a dose of 14 mg/m^2 and was administered intravenously over 30 min.\nThe safety assessment indicators included: vital signs, adverse events, laboratory tests (complete blood test, routine urinalysis, blood biochemistry, electrocardiogram, echocardiogram), and early withdrawal. Safety assessment criteria: NCI-CTC 4.0.\nFor the drug mitoxantrone, the most serious adverse event is cardiotoxicity. Clinical studies and practical observations have shown that the cardiotoxicity caused by anthracyclines are mainly progressive and irreversible. Especially anthracyclines can easily cause cardiac damage at first use. Cardiotoxicity is a common concern for clinicians since it is a long-term cumulative dose-limiting toxicity. The incidence of increased troponin T and the incidence of increased brain natriuretic peptide were used as indices for examining cardiotoxicity in this trial. The change of the cardiac troponin T level can reflect myocardium damage with high sensitivity; brain natriuretic peptide is a polypeptide hormone secreted by cardiomyocytes in the heart ventricles in response to stretching caused by increased ventricular blood volume and increased ventricular pressure."}, "[2]": {"test_system": "patients with advanced recurrent or metastatic breast cancer", "assay": "Efficacy evaluation (RECIST 1.1) in randomized, open-labeled, active controlled clinical study", "type": "in vivo, human", "parameters": "disease control rate (PR+SD): concentration or dose not given beside the values", "method": "A tumor assessment was performed at baseline.\nDuring the treatment period, the efficacy evaluation was performed once every two cycles; in addition, when the efficacy evaluation result was PR or CR, the efficacy should be radiologically confirmed after 4 weeks. After the completion of the treatment, the evaluation was performed every 3 months until disease progression. Tumor evaluation was performed according to RECIST 1.1 criteria.\nPrimary efficacy endpoint: objective response rate (ORR), referring to the ratio of subjects reaching PR and CR.\nSecondary efficacy endpoint: progression-free survival (PFS), referring to the time from the start of randomization to disease progression or death."}}, "note": "Where a name gives a salt, the structure may show the parent alone."}
{"smiles": "O=C1c2c(O)ccc(O)c2C(=O)c2c(NCCNCCO)ccc(NCCNCCO)c21", "note": "[Control group, mitoxantrone hydrochloride]", "values": [{"measurement": "Anemia, number of subjects", "setting": "[1]", "result": 14}, {"measurement": "Decreased neutrophil count, number of subjects", "setting": "[1]", "result": 29}, {"measurement": "Decreased platelet count, number of subjects", "setting": "[1]", "result": 16}, {"measurement": "Decreased white blood cell count, number of subjects", "setting": "[1]", "result": 29}, {"measurement": "Fever, number of subjects", "setting": "[1]", "result": 3}, {"measurement": "Incidence of fever", "setting": "[1]", "result": "(10.0%)"}, {"measurement": "Incidence of increased alanine aminotransferase", "setting": "[1]", "result": "(26.70%)"}, {"measurement": "Incidence of increased blood bilirubin", "setting": "[1]", "result": "(20.00%)"}, {"measurement": "Incidence of skin hyperpigmentation", "setting": "[1]", "result": 3.3, "unit": "%"}, {"measurement": "Increased alanine aminotransferase, number of subjects", "setting": "[1]", "result": 8}, {"measurement": "Increased aspartate aminotransferase, number of subjects", "setting": "[1]", "result": 16}, {"measurement": "Increased blood bilirubin, number of subjects", "setting": "[1]", "result": 6}, {"measurement": "Increased brain natriuretic peptide, number of subjects", "setting": "[1]", "result": 10}, {"measurement": "Increased conjugated bilirubin, number of subjects", "setting": "[1]", "result": 17}, {"measurement": "Increased troponin T, number of subjects", "setting": "[1]", "result": 11}, {"measurement": "overall incidence rate of adverse events", "setting": "[1]", "result": 100, "unit": "%"}, {"measurement": "Progression-free survival rate", "setting": "[2]; 3 months, FAS (N = 60)", "result": 26.7, "unit": "%"}, {"measurement": "Progression-free survival rate", "setting": "[2]; 3 months, PPS (N = 58)", "result": 28.6}, {"measurement": "Progression-free survival rate", "setting": "[2]; 6 months, FAS (N = 60), hydrochloride", "result": 20.0, "unit": "%"}, {"measurement": "Progression-free survival rate", "setting": "[2]; 6 months, FAS (N = 60), listed as control group, hydrochloride", "result": 20, "unit": "%"}, {"measurement": "Progression-free survival rate", "setting": "[2]; 6 months, PPS (N = 58)", "result": 21.4}, {"measurement": "Progression-free survival rate", "setting": "[2]; 12 months, FAS (N = 60)", "result": 0, "unit": "%"}, {"measurement": "Progression-free survival rate", "setting": "[2]; 12 months, PPS (N = 58)", "result": 0}, {"measurement": "disease control rate (PR+SD)", "setting": "[2]; 30 subjects per group", "result": 30, "unit": "%"}, {"measurement": "objective response rate (ORR)", "setting": "[2]; 30 subjects per group", "result": 6.7, "unit": "%"}, {"measurement": "Best overall response NA, number of subjects", "setting": "[2]; FAS (N = 60)", "result": 2}, {"measurement": "Best overall response NA, percent of subjects", "setting": "[2]; FAS (N = 60)", "result": "(6.7%)"}, {"measurement": "Best overall response PD, number of subjects", "setting": "[2]; FAS (N = 60)", "result": 19}, {"measurement": "Best overall response PD, percent of subjects", "setting": "[2]; FAS (N = 60)", "result": "(63.3%)"}, {"measurement": "Best overall response PR, percent of subjects", "setting": "[2]; FAS (N = 60)", "result": "(6.7%)"}, {"measurement": "Best overall response SD, number of subjects", "setting": "[2]; FAS (N = 60)", "result": 7}, {"measurement": "Best overall response SD, percent of subjects", "setting": "[2]; FAS (N = 60)", "result": "(23.3%)"}, {"measurement": "Median PFS", "setting": "[2]; FAS (N = 60)", "result": 1.86, "unit": "month"}, {"measurement": "Number of events (%) (PFS), percent", "setting": "[2]; FAS (N = 60)", "result": 83.3, "unit": "%"}, {"measurement": "Number of events (PFS)", "setting": "[2]; FAS (N = 60)", "result": 25}, {"measurement": "Best overall response PR, number of subjects", "setting": "[2]; FAS (N = 60), liposome 20 mg/m^2 or injection 14 mg/m^2 i.v. once every 4 weeks", "result": 2}, {"measurement": "Best overall response NA, number of subjects", "setting": "[2]; PPS (N = 58)", "result": 0}, {"measurement": "Best overall response NA, percent of subjects", "setting": "[2]; PPS (N = 58)", "result": "(0.0) %"}, {"measurement": "Best overall response PD, number of subjects", "setting": "[2]; PPS (N = 58)", "result": 19}, {"measurement": "Best overall response PD, percent of subjects", "setting": "[2]; PPS (N = 58)", "result": "(67.9%)"}, {"measurement": "Best overall response PR, number of subjects", "setting": "[2]; PPS (N = 58)", "result": 2}, {"measurement": "Best overall response PR, percent of subjects", "setting": "[2]; PPS (N = 58)", "result": "(7.1%)"}, {"measurement": "Best overall response SD, number of subjects", "setting": "[2]; PPS (N = 58)", "result": 7}, {"measurement": "Best overall response SD, percent of subjects", "setting": "[2]; PPS (N = 58)", "result": "(28.6%)"}, {"measurement": "Median PFS", "setting": "[2]; PPS (N = 58)", "result": 1.86, "unit": "month"}, {"measurement": "Number of events (%) (PFS), percent", "setting": "[2]; PPS (N = 58)", "result": 82.14, "unit": "%"}, {"measurement": "Number of events (PFS)", "setting": "[2]; PPS (N = 58)", "result": 23}]}
